US11572590B2, “Methods for evaluating tumor cell spheroids using 3D microfluidic cell culture device” (Dana-Farber Cancer Institute, Inc., priority 2017, dated 2023)
Where two headings read alike, the source gives them in different places.

Columns and labels:
Assay in all cases: SelectScreen Kinase Profiling, single point inhibition and IC50 for off-target kinases
Type in all cases: biochemical
off-target kinases [1] = molecular target: off-target kinases (Homo sapiens, UniProt Q5S007); conditions: ATP Km app, Adapta
off-target kinases [2] = molecular target: off-target kinases (Homo sapiens, UniProt P21802); conditions: FGFR2, ZLYTE, ATP Km app
off-target kinases [3] = molecular target: T1, off-target kinases (Homo sapiens, UniProt Q05513); conditions: PRKCZ (PKC zeta); Cmpd1 1000 μM; ATP Km app; ZLYTE
T1 sequence (Q05513 1-592): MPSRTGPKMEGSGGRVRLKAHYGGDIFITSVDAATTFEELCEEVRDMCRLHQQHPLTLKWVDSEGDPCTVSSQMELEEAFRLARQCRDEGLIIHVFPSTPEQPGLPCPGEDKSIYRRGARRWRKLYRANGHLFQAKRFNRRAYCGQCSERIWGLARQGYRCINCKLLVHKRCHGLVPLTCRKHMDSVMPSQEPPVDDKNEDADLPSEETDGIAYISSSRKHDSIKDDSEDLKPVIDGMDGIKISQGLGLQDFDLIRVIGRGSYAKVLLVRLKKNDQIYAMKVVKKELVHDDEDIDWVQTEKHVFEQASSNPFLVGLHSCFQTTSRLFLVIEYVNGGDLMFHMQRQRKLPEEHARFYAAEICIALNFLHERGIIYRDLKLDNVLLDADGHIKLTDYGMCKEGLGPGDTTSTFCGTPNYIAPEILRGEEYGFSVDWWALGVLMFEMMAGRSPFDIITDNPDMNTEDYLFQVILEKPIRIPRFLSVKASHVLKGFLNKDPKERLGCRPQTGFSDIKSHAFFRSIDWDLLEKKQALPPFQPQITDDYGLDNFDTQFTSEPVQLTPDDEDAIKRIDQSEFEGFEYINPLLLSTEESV

off-target kinases [4] = molecular target: off-target kinases (Homo sapiens, UniProt O43293); conditions: DAPK3 (ZIPK), ATP Km app, ZLYTE
off-target kinases [5] = molecular target: off-target kinases (Homo sapiens, UniProt P48736); conditions: PIK3CG (p110 gamma), Adapta, ATP Km app
off-target kinases [6] = molecular target: off-target kinases (Homo sapiens, UniProt P10721); conditions: KIT, ZLYTE, ATP Km app
Chain of off-target kinases (Homo sapiens, UniProt P10721) (P10721 26-976): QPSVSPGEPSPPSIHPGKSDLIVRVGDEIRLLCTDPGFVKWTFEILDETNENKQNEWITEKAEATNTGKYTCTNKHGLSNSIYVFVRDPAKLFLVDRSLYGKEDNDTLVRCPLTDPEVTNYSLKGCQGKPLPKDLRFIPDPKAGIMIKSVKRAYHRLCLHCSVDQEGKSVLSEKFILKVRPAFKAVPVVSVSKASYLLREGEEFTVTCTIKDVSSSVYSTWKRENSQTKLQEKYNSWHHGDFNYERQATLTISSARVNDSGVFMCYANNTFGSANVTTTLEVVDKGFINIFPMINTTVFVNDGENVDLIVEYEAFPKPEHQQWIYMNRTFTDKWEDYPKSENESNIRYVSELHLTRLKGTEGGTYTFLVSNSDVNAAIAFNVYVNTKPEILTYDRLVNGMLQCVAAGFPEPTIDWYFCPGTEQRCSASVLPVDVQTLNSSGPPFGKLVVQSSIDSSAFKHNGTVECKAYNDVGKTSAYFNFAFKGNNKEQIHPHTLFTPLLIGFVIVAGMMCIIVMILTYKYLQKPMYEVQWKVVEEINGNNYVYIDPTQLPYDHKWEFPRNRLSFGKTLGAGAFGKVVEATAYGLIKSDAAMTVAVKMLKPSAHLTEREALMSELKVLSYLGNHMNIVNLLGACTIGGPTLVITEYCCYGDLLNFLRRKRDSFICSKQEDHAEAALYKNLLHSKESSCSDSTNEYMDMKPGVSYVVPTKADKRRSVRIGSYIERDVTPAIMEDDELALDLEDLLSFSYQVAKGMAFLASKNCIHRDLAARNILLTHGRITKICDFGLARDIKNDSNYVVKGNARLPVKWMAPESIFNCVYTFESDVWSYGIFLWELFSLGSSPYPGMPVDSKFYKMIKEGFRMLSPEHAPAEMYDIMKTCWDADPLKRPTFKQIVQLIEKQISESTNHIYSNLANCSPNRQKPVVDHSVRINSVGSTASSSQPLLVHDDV

Chain of off-target kinases (Homo sapiens, UniProt P21802) (P21802 22-821): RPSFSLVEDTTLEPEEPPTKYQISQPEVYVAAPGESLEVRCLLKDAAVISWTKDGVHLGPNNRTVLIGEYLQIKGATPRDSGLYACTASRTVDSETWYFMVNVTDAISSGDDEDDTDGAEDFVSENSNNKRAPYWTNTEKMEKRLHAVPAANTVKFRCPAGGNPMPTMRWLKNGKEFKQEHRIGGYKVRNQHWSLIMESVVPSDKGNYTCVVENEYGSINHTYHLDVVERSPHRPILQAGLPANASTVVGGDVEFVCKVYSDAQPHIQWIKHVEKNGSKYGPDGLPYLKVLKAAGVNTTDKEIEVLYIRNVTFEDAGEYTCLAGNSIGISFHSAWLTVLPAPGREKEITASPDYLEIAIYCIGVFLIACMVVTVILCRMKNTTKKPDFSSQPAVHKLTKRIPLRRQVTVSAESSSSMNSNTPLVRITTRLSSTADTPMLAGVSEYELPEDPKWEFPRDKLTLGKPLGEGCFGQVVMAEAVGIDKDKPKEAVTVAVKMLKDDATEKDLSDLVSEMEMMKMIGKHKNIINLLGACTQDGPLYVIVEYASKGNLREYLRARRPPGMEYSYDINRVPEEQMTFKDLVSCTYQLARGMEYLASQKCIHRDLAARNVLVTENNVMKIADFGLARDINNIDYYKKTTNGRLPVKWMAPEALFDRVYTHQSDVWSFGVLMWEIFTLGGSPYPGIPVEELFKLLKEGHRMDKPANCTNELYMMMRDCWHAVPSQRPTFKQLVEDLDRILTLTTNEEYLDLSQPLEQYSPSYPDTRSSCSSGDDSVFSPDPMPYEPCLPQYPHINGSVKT
Chain of off-target kinases (Homo sapiens, UniProt Q5S007) (Q5S007 whole entry): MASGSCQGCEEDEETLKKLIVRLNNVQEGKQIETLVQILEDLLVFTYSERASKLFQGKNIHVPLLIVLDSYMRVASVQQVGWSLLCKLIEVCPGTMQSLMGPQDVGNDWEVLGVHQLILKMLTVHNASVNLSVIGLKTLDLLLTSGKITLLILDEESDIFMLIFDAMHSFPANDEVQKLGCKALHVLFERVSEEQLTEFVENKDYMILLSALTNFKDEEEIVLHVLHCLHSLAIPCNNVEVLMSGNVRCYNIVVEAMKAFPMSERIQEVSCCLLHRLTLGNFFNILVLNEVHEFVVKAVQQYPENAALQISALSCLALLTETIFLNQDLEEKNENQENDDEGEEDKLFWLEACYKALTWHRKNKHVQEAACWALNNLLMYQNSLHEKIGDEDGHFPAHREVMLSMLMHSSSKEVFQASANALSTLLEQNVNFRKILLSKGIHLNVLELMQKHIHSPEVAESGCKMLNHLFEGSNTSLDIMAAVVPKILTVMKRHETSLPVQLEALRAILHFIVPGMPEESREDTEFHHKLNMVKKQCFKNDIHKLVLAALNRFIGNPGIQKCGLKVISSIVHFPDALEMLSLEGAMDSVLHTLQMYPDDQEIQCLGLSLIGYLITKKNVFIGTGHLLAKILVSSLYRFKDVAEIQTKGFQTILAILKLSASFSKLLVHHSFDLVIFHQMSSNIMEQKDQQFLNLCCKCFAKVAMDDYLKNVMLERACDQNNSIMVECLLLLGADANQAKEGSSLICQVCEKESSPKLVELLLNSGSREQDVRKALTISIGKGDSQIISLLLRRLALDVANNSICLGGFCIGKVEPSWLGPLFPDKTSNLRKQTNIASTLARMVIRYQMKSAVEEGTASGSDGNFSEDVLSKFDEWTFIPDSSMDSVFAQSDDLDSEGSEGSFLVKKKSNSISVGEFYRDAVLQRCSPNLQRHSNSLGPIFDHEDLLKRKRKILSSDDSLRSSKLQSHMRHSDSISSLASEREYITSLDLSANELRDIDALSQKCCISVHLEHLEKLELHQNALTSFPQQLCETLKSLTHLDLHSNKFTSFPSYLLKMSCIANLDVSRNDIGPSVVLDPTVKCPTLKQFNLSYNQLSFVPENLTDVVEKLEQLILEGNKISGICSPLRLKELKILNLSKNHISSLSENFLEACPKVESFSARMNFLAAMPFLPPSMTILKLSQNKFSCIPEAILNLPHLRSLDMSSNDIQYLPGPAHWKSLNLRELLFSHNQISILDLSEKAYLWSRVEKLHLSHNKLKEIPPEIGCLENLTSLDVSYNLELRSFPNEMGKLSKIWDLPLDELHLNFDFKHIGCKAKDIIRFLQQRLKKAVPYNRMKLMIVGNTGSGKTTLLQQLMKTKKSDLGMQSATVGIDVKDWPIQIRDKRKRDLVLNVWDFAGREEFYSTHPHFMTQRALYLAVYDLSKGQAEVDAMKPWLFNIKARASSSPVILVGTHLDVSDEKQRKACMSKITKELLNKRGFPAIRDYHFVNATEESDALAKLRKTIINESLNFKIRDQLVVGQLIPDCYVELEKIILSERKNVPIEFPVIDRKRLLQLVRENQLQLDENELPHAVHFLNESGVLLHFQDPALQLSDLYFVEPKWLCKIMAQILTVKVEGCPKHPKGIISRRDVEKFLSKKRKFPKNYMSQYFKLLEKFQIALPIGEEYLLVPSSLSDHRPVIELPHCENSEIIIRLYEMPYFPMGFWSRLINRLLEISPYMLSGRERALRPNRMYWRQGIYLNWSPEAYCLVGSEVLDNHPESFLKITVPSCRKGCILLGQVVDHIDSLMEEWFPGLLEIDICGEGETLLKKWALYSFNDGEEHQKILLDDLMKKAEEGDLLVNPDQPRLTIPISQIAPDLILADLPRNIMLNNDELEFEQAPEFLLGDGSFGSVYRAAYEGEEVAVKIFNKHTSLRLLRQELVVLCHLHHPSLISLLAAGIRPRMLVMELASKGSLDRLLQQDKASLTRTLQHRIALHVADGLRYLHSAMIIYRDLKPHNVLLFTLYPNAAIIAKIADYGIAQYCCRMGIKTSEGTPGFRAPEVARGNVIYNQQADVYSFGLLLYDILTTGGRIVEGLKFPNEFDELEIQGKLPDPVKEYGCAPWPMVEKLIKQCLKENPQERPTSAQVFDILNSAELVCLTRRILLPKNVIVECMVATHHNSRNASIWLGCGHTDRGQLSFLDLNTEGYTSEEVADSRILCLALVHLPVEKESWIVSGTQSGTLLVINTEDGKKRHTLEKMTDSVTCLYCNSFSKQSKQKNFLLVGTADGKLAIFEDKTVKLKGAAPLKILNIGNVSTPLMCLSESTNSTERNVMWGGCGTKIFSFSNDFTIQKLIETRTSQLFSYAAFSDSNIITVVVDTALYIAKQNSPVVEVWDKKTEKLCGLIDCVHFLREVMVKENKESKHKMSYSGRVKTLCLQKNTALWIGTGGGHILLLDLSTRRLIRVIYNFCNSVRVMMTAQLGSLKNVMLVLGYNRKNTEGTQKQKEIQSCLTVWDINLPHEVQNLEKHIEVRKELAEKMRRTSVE
Chain of off-target kinases (Homo sapiens, UniProt O43293) (O43293 whole entry): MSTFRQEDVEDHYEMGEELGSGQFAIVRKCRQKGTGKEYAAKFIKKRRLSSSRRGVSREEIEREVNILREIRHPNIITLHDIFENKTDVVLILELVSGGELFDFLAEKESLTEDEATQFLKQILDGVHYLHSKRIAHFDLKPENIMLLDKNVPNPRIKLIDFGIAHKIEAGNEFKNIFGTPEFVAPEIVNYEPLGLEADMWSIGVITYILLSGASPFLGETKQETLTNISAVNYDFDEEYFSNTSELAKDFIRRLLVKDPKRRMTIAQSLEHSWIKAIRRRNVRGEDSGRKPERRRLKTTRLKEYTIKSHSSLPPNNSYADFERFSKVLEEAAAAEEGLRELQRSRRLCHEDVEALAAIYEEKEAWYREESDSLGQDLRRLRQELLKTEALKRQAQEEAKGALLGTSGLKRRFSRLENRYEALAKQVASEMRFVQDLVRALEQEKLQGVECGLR

With `N#Cc1cc(-c2ncnc(Nc3ccc(N4CCN(C5COC5)CC4)cc3)n2)ccc1OC1CCOCC1` [Compound 1, 5-(4-((4-(4-(oxetan-3-yl)piperazin-1-yl)phenyl)amino)-1,3,5-triazin-2-yl)-2-((tetrahydro-2H-pyran-4-yl)oxy)benzonitrile] the inhibition (off-target kinases [1]; LRRK2, read-out: % Inhibition 1) was 99%, the inhibition (off-target kinases [1]; LRRK2, read-out: % Inhibition 2) was 100% and the inhibition (off-target kinases [1]; LRRK2, read-out: % Inhibition Avg) was 100%. The inhibition (off-target kinases [1]; LRRK2 FL, read-out: % Inhibition 1) was 98%, the inhibition (off-target kinases [1]; LRRK2 FL, read-out: % Inhibition 2) was 98% and the inhibition (off-target kinases [1]; LRRK2 FL, read-out: % Inhibition Avg) was 98%. It also gave an inhibition (off-target kinases [2]; read-out: % Inhibition 1) of 12%, an inhibition (off-target kinases [2]; read-out: % Inhibition 2) of 11% and an inhibition (off-target kinases [2]; read-out: % Inhibition Avg) of 12%. The “% Inhibition 1” value (off-target kinases [3]) was −18%, the “% Inhibition 2” value (off-target kinases [3]) was −16% and the “% Inhibition Avg” value (off-target kinases [3]) was −17%. It also gave an inhibition (off-target kinases [4]; read-out: % Inhibition 1) of 52%, an inhibition (off-target kinases [4]; read-out: % Inhibition 2) of 49% and an inhibition (off-target kinases [4]; read-out: % Inhibition Avg) of 51%. For the same compound, the inhibition (off-target kinases [5]; read-out: % Inhibition 1) was 11%, the inhibition (off-target kinases [5]; read-out: % Inhibition 2) was 8% and the inhibition (off-target kinases [5]; read-out: % Inhibition Avg) was 9%. The inhibition (off-target kinases [6]; read-out: % Inhibition 1) was 1%, the inhibition (off-target kinases [6]; read-out: % Inhibition 2) was 5% and the inhibition (off-target kinases [6]; read-out: % Inhibition Avg) was 3%.
